Assay results: article PMC6950567, “Evaluation of Marine Diindolinonepyrane in Vitro and in Vivo: Permeability Characterization in Caco-2 Cells Monolayer and Pharmacokinetic Properties in Beagle Dogs” (Marine Drugs, 2019)
Entries after “also recorded” stand apart in the source; their conditions may differ. Like-named read-outs stand apart in the source and are kept apart here.

Key:
P-gp = target: T1, P-gp (Homo sapiens, UniProt P08183); test: P-gp substrate assessment from Caco-2 bidirectional transport; format: in vitro ADME; conditions: suggested from Caco-2 transport with 0.1% BSA
T1 construct: host or cells: Caco-2
T1 sequence (P08183 whole entry): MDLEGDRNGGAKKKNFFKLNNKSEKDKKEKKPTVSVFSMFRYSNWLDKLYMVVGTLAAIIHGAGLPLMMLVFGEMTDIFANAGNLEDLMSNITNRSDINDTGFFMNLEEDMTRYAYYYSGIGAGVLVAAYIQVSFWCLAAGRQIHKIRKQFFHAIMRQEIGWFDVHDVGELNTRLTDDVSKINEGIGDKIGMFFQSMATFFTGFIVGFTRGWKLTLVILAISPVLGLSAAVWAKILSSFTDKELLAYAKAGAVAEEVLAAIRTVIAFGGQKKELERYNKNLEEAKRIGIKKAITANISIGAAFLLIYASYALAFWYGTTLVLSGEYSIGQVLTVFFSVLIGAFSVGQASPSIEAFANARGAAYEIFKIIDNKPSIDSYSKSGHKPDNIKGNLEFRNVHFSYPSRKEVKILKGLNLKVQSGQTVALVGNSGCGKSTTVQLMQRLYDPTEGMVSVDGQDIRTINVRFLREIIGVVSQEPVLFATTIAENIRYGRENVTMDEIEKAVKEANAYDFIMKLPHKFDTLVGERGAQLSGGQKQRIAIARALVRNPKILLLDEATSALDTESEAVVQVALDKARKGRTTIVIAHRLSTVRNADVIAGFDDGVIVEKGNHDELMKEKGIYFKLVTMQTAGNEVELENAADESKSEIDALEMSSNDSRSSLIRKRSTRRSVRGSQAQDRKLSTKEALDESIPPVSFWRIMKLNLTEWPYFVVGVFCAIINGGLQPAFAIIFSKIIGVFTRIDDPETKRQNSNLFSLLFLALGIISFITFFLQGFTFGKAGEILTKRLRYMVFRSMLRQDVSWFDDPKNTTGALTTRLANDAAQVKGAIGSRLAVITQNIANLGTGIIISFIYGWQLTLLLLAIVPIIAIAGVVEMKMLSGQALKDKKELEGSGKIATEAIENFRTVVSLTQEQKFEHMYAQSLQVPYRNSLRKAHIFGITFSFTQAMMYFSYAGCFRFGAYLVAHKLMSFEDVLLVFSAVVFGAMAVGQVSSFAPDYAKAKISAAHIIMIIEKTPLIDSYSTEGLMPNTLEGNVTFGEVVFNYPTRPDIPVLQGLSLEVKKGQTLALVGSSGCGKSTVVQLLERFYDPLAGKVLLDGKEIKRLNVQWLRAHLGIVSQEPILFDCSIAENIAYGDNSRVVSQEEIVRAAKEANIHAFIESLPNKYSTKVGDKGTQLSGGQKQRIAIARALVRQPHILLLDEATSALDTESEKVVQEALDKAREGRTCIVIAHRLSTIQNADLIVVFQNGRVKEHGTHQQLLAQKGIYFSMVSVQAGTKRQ
Method: The Caco-2 cell model was established successfully, and the transwell plate was then rinsed with HBSS solution three times and cultured in an incubator at 37 °C for 30 min to remove the interfering substances on the cell surface. For transfer in the AP→BL direction, 0.075 mL drug solution was added to the AP side as the supply pool, and 0.25 mL HBSS solution was added to the BL side as the receiving pool. In the BL→AP direction, 0.25 mL compound solution was added to the BL side as the supply pool, and 0.075 mL HBSS solution was added to the AP side as the receiving pool. The transwell plate was then cultured in an incubator at 37 °C for 2 h. Samples on the AP side and BL side were collected, respectively. Then, acetonitrile containing an internal label was added to each upper chamber to lyse transport membranes. The total recovery was calculated by collecting the amount of lead compound absorbed on the membrane surface or accumulated in the cell. Finally, the concentration of each sample was calculated as the ratio of the peak area between the compound and the inner target through mass spectrum analysis (API 4000). […] Vr is the volume in the receiving hole (mL); A is the transport membrane area; and C0 is the compound initiation concentration (µM). […]

[1] = parameters: method as in PMID 24216275; conditions: rats, cited from earlier work
[2] = Short-term stability in beagle dog plasma; format: in vitro ADME; conditions: 24 h, residual/initial
Method: The stability of 2,5-BHPA was assayed at 1, 100, and 400 mg/L. The short-term stability of 2,5-BHPA stored at 37 °C was determined after 24 h. Stability was defined as the amount of 2,5-BHPA residual after 24 h divided by the initial amount.

[3] = Tissue distribution after intravenous injection in beagle dogs; format: in vivo; conditions: 7.5 mg/kg
Method: Moreover, another three dogs were fasted for 24 h with water ad libidum for the tissue distribution study. 2,5-BHPA was administered by intravenous injection at 7.5 mg/kg. Subsequently, their brain, stomach (emptied of gastric contents), heart, large intestine (emptied of gastric contents), liver, kidneys, spleen, urine, lungs, spermary, small intestine (emptied of gastric contents), feces, muscle, bile of dogs were removed at 60 min after compound administration. The tissues were flushed with normal saline, dried, weighed, and homogenized in proper methanol (methanol:sample = 5:1, V/V). The tissue samples were centrifuged at 5000× g for 15 min at RT, and the supernatants were filtered with a 0.22 µm disposable syringe filter for HPLC detection.

CC(C)=CCCC(C)=CCCC1(C)Oc2c(c(O)cc3c2CN(CCCC(C(=O)O)N2Cc4c(cc(O)c5c4OC(C)(CCC=C(C)CCC=C(C)C)C(O)C5)C2=O)C3=O)CC1O (stereo not drawn) [2,5-BHPA, 2,5-Bis-[8-(4,8-dimethyl-nona-3,7-dienyl)-5,7-dihydroxy-8-methyl-3-keto-1,2,7,8-tertahydro-6H-pyran[a]isoindol-2-yl]-pentanoic acid]
substrate of P-gp (P-gp): not a substrate of P-gp | half-life ([1]; intravenous (IV) bolus): ~ 22 min | detection in the brain [1]: not the case in rats | tissue with the highest concentration level (liver) [1]: same as in rats | Stability ([2]; 1.0 μg·mL^−1, 37 °C): 94.69 ± 5.37% | Stability ([2]; 100 μg·mL^−1, 37 °C): 98.39 ± 2.25% | Stability ([2]; 400 μg·mL^−1, 37 °C): 97.63 ± 5.91% | concentration in different organs ([3]; 1 h after intravenous injection): concentration in the liver and bile was higher compared with other organs; also recorded: Lung, kidney, spleen, stomach, excrement, and urine contained moderate amounts; also recorded: highest 2,5-BHPA concentration level was detected in the liver | detection in the brain ([3]; 60 min after intravenous injection): detected in the brain
